From patent publication US11673910B2, “Macrolides with modified desosamine sugars and uses thereof” (Zikani Therapeutics, Inc., priority 2017, dated 2023)
Values after ≈ are worked out from the molar mass of the structure shown.

Experiments:
Format in all cases: cell-based
E. coli strain MP-4 = experiment: Broth dilution MIC determination (CLSI) against E. coli strain MP-4; conditions: Escherichia coli, MP4
Experimental: (§1) Minimum inhibitory concentrations (MICs) for macrolides described herein were determined for E. coli strain MP-4, K. pneumoniae strain MP-548, P. aeruginosa strain MP-3, A. baumannii strain MP-15, and S. aureus strain MP-12 using similar test procedures as published in US Pat. Pub. No. 2017/0305953. MIC data is represented as “+++” for values less than or equal to 4 mg/L, “++” for values of greater than or equal to 8 mg/L and less than 32 mg/L, and “+” for values of 32 mg/L or greater. ND indicates no data for a particular compound. CLSI standard procedures for broth dilution MIC determination were used.

[1] = system: K. pneumoniae strain MP-548; experiment: Broth dilution MIC determination (CLSI) against K. pneumoniae strain MP-548; conditions: Klebsiella pneumoniae, MP548
Experimental: as §1

[2] = system: A. baumannii strain MP-15; experiment: Broth dilution MIC determination (CLSI) against A. baumannii strain MP-15; conditions: Acinetobacter baumannii, MP15
Experimental: as §1

S. aureus strain MP-12 = experiment: Broth dilution MIC determination (CLSI) against S. aureus strain MP-12; conditions: for MIC: Staphylococcus aureus, MP12, strain MP-12; for MIC against S. aureus (MP-12): strain MP-12
Experimental: as §1

[3] = system: P. aeruginosa strain MP-3; experiment: Broth dilution MIC determination (CLSI) against P. aeruginosa strain MP-3; conditions: Pseudomonas aeruginosa, MP3
Experimental: as §1

Molecule	MIC (E. coli strain MP-4) [µg/mL]	MIC [1] [µg/mL]	MIC [2] [µg/mL]	MIC (S. aureus strain MP-12) [µg/mL]	MIC [3] [µg/mL]	MIC against S. aureus (MP-12) (S. aureus strain MP-12)
CC[C@H]1OC(=O)C(C)C(=O)[C@H](C)[C@@H](OC2OC(CN3CCC3)CC(N(C)C)C2O)[C@](C)(OC)C[C@@H](C)CN[C@H](C)[C@H]2NC(=O)O[C@@]21C (stereo partly drawn) [Compound 121, 3-Descladinosyl-3-oxo-6-O-methyl-N9a-desmethyl-11,12-dideoxy-12,11-(oxycarbonylimino)-6′-(1-azetininyl) Azithromycin]	8 to 32 (≈ 12 to 47.8 µM)	≥ 32	≥ 32	≥ 32	≥ 32	
CC[C@H]1OC(=O)[C@]2(C)CCOC(C)(C[C@@H](C)CN[C@H](C)[C@H]3NC(=O)O[C@@]31C)[C@H](O[C@@H]1O[C@H](CNC34CC(C3)C4)C[C@H](N(C)C)[C@H]1O)[C@@H](C)C2=O [Compound 205]						+ (values of 32 mg/L or greater)
CC[C@H]1OC(=O)[C@@]2(C)CCOC(C)(C[C@@H](C)CN[C@H](C)[C@H]3NC(=O)O[C@@]31C)[C@H](O[C@@H]1OC(C)CC(N(C)C)C1O)[C@@H](C)C2=O (stereo partly drawn) [Compound 219]	≤ 4	≤ 4	8 to 32 (≈ 12.8 to 51.1 µM)	≤ 4	≥ 32	
CC[C@H]1OC(=O)[C@@]2(C)CCO[C@](C)(C[C@@H](C)CN[C@H](C)[C@H]3NC(=O)O[C@@]31C)[C@H](O[C@@H]1O[C@H](CNC3CC3)C[C@H](N(C)C)[C@H]1O)[C@@H](C)C2=O [Compound 202]	≤ 4	≤ 4	8 to 32 (≈ 11.7 to 47 µM)	≤ 4	≥ 32	
C=CC1CO[C@@]2(C)C[C@@H](C)CN[C@H](C)[C@H]3NC(=O)O[C@]3(C)[C@@H](CC)OC(=O)[C@@]1(C)C(=O)[C@H](C)[C@H]2OC1OC(C)CC(N(C)C)C1O (stereo partly drawn) [Compound 224]	≥ 32	≥ 32	≥ 32	≥ 32	≥ 32	
CC[C@H]1OC(=O)C(C)C(=O)[C@H](C)[C@@H](OC2OC(CNC3CCC3)CC(N(C)C)C2O)[C@](C)(OC)C[C@@H](C)CN[C@H](C)[C@H]2NC(=O)O[C@@]21C (stereo partly drawn) [Compound 120, 3-Descladinosyl-3-oxo-6-O-methyl-N9a-desmethyl-11,12-dideoxy-12,11-(oxycarbonylimino)-6′-cyclobutylamino Azithromycin]	≤ 4	≤ 4	≥ 32	≥ 32	≥ 32	
CC[C@H]1OC(=O)[C@@](C)(F)C(=O)[C@H](C)[C@@H](O[C@@H]2OC(CNCc3cccc(-c4cncnc4)c3)CC(N(C)C)C2O)[C@](C)(OC)C[C@@H](C)C(=O)[C@H](C)[C@H]2NC(=O)O[C@@]21C (stereo partly drawn) [Compound 93]	≥ 32	≥ 32	≥ 32	≤ 4	≥ 32	
CC[C@H]1OC(=O)C(C)C(=O)[C@H](C)[C@@H](O[C@@H]2O[C@H](CC(C)C)CC(N(C)C)[C@H]2O)[C@](C)(OC)C[C@@H](C)CN[C@H](C)[C@H]2NC(=O)O[C@@]21C (stereo partly drawn) [Compound 184, 3-Desdadinosyl-3-oxo-6-O-methyl-N9a-desmethyl-11,12-dideoxy-12,11-(oxycarbonylimino)-6′-isopropyl Azithromycin]	≤ 4	8 to 32 (≈ 12.2 to 48.8 µM)	8 to 32 (≈ 12.2 to 48.8 µM)	≤ 4	≥ 32	
CC[C@H]1OC(=O)C(C)C(=O)[C@H](C)[C@@H](O[C@@H]2O[C@H](CN(C)C(=O)CN(C)C3CC3)CC(N(C)C)[C@H]2O)[C@](C)(OC)C[C@@H](C)CN[C@H](C)[C@H]2NC(=O)O[C@@]21C (stereo partly drawn) [Compound 172, 3-Descladinosyl-3-oxo-6-O-methyl-N9a-desmethyl-11,12-dideoxy-12,11-(oxycarbonylimino)-6′-(N-methyl-N-(2-cyclopropylamino)acetylamino) Azithromycin]	≥ 32	≥ 32	≥ 32	≥ 32	≥ 32	
CCNCC1CC(N(C)C)C(O)C(O[C@@H]2[C@@H](C)C(=O)C(C)C(=O)O[C@H](CC)[C@@]3(C)OC(=O)N[C@@H]3[C@@H](C)NC[C@H](C)C[C@@]2(C)OC)O1 (stereo partly drawn) [Compound 108, 3-Descladinosyl-3-oxo-6-O-methyl-N9a-desmethyl-11,12-dideoxy-12,11-(oxycarbonylimino)-6′-ethylamino azithromycin]	8 to 32 (≈ 12.2 to 48.7 µM)	≥ 32	≥ 32	≥ 32	≥ 32	
CO[C@]1(C)C[C@@H](C)CN[C@H](C)[C@H]2NC(=O)O[C@]2(C)[C@@H](C)OC(=O)C(C)C(=O)[C@H](C)[C@H]1OC1OC(CN2CCCCC2)CC(N(C)C)C1O (stereo partly drawn) [Compound 149, 3-Descladinosyl-3-oxo-6-O-methyl-N9a-desmethyl-11,12-dideoxy-12,11-(oxycarbonylimino)-6′-piperidinyl-13-methyl Azithromycin]	≤ 4	≥ 32	≥ 32	≥ 32	≥ 32	
CC[C@H]1OC(=O)[C@@](C)(F)C(=O)[C@H](C)[C@@H](O[C@@H]2OC(COC/C=C/c3cnc4ccccc4c3)CC(N(C)C)C2O)[C@](C)(OC)C[C@@H](C)C(=O)[C@H](C)[C@H]2NC(=O)O[C@@]21C (stereo partly drawn) [Compound 104]	≥ 32	≥ 32	8 to 32 (≈ 9.83 to 39.3 µM)	≤ 4	≥ 32	
CC[C@H]1OC(=O)C(C)C(=O)[C@H](C)[C@@H](O[C@@H]2OC(CNCC3COC3)CC(N(C)C)C2O)[C@](C)(OC)C[C@@H](C)CN[C@H](C)[C@H]2NC(=O)O[C@@]21C (stereo partly drawn) [Compound 56]	8 to 32 (≈ 11.4 to 45.8 µM)	≥ 32	≥ 32	≥ 32	≥ 32	
CC[C@H]1OC(=O)C(C)C(=O)[C@H](C)[C@@H](OC2OC(CN(C)C3CCC3)CC(N(C)C)C2O)[C@](C)(OC)C[C@@H](C)CN[C@H](C)[C@H]2NC(=O)O[C@@]21C (stereo partly drawn) [Compound 150, 3-Descladinosyl-3-oxo-6-O-methyl-N9a-desmethyl-11,12-dideoxy-12,11-(oxycarbonylimino)-6′-methylcyclobutylamino Azithromycin]	8 to 32 (≈ 11.5 to 45.9 µM)	≥ 32	≥ 32	≥ 32	≥ 32	
CC[C@H]1OC(=O)[C@@]2(C)CCOC(C)(C[C@@H](C)CN(C)[C@H](C)[C@H]3NC(=O)O[C@@]31C)[C@H](O[C@@H]1OC(CNC(C)C)CC(N(C)C)C1O)[C@@H](C)C2=O (stereo partly drawn) [Compound 214]	≤ 4	≤ 4	≥ 32	≤ 4	≥ 32	
CC[C@H]1OC(=O)C(C)C(=O)[C@H](C)[C@@H](OC2OC(CN[C@@H]3C[C@H]3C)CC(N(C)C)C2O)[C@](C)(OC)C[C@@H](C)CN[C@H](C)[C@H]2NC(=O)O[C@@]21C (stereo partly drawn) [Compound 134, 3-Descladinosyl-3-oxo-6-O-methyl-N9a-desmethyl-11,12-dideoxy-12,11-(oxycarbonylimino)-6′-((1″R,2″R)-2″-methylcyclopropyl)amino Azithromycin]	≤ 4	≤ 4	8 to 32 (≈ 11.7 to 46.9 µM)	≥ 32	≥ 32	
CC[C@H]1OC(=O)C(C)C(=O)[C@H](C)[C@@H](O[C@@H]2O[C@H](CNC3CCC3)CC(N(C)C)[C@H]2O)[C@](C)(OC)C[C@@H](C)CN(C)[C@H](C)[C@H]2NC(=O)O[C@@]21C (stereo partly drawn) [Compound 163, 3-Descladinosyl-3-oxo-6-O-methyl-11,12-dideoxy-12,11-(oxycarbonylimino)-6′-cyclobutylamino Azithromycin]	≤ 4	≤ 4	≥ 32	≥ 32	≥ 32	
CC[C@H]1OC(=O)[C@@]2(C)CCOC(C)(C[C@@H](C)CN(CC(C)C)[C@H](C)[C@H]3NC(=O)O[C@@]31C)[C@H](O[C@@H]1OC(C)CC(N(C)C)C1O)[C@@H](C)C2=O (stereo partly drawn) [Compound 222]				8 to 32 (≈ 11.7 to 46.9 µM)		
CC[C@H]1OC(=O)[C@@](C)(F)C(=O)[C@H](C)[C@@H](O[C@@H]2OC(CNCc3ccc(-c4cncnc4)cc3)CC(N(C)C)C2O)[C@](C)(OC)C[C@@H](C)C(=O)[C@H](C)[C@H]2NC(=O)O[C@@]21C (stereo partly drawn) [Compound 92]	≥ 32	≥ 32	≥ 32	≤ 4	≥ 32	
CC[C@H]1OC(=O)[C@]2(C)CCOC(C)(C[C@@H](C)CN[C@H](C)[C@H]3NC(=O)O[C@@]31C)[C@H](O[C@@H]1O[C@H](CNCC(F)(F)F)C[C@H](N(C)C)[C@H]1O)[C@@H](C)C2=O [Compound 207]				≥ 32		
CC[C@H]1OC(=O)C(C)C(=O)[C@H](C)[C@@H](OC2OC(CNCC3CC3)CC(N(C)C)C2O)[C@](C)(OC)C[C@@H](C)CN[C@H](C)[C@H]2NC(=O)O[C@@]21C (stereo partly drawn) [Compound 119, 3-Descladinosyl-3-oxo-6-O-methyl-N9a-desmethyl-11,12-dideoxy-12,11-(oxycarbonylimino)-6′-(cyclopropylmethylamino) Azithromycin]	≤ 4	8 to 32 (≈ 11.7 to 46.9 µM)	≥ 32	≥ 32		
CCC1CO[C@@]2(C)C[C@@H](C)CN[C@H](C)[C@H]3NC(=O)O[C@]3(C)[C@@H](CC)OC(=O)[C@@]1(C)C(=O)[C@H](C)[C@H]2OC1OC(C)CC(N(C)C)C1O (stereo partly drawn) [Compound 225]				≥ 32		
CC[C@H]1OC(=O)[C@]2(C)CCO[C@](C)(C[C@@H](C)CN[C@H](C)[C@H]3NC(=O)O[C@@]31C)[C@H](O[C@@H]1O[C@H](CNC3CC3)C[C@H](N(C)C)[C@H]1O)[C@@H](C)C2=O [Compound 203]				≥ 32	≥ 32	
3-Descladinosyl-3-oxo-6-O-methyl-N9a-desmethyl-11,12-dideoxy-12,11-(oxycarbonylimino)-6,11-(Z-2-butenyl)-6′-cyclopropylamino azithromycin [Compound 230]						+ (values of 32 mg/L or greater)
